From PubChem BioAssay AID2060603 (Molecular Pharmacology Branch, DTP, NCI, 2025)
“And” between values parts separate entries of the source, which are not always exact repeats. Equal values may be shown once.

System: 422866-222-R5-J1-PDC spheroid viability
Assay: Anticancer human tumor 422866-222-R5-J1-PDC patient-derived pancreatic adenocarcinoma cell line growth inhibition [CLK]
Conditions: spheroids with HUVEC and MSC; for viability, T/C: stronger effect = lower value
How it was run: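 Patient-derived tumor cells grown as complex spheroids with HUVEC endothelial cells and mesenchymal stem cells, treated with drug combinations. Concentrations descend in half-log steps from near clinical Cmax, or from 10 microM if Cmax unknown.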

[1] = curve of first compound, second compound 0.0316 µM
[2] = curve of first compound, second compound 0.1 µM
[3] = curve of first compound, second compound 0.316 µM
[4] = curve of first compound, second compound 1 µM
[5] = curve of first compound, second compound 3.16 µM
[6] = curve of first compound, second compound 10 µM
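Also: spheroids exposed to agents for seven days before readout.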

C=CC(=O)Nc1cc(Nc2nccc(-c3cn(C)c4ccccc34)n2)c(OC)cc1N(C)CCN(C)C + CN1CCN(c2cc(C(=O)Nc3cc4cc(-c5cnn(C)c5)ccc4cn3)ccn2)CC1
IC50 [1]: > 300 nM | IC50 [2]: > 300 nM | IC50 [3]: > 300 nM | IC50 [4]: < 0.949 nM | IC50 [5]: < 0.949 nM | IC50 [6]: < 0.949 nM | viability, T/C (second compound 0.0316 µM, first compound 0.000949 µM): 122% | viability, T/C (second compound 0.0316 µM, first compound 0.003 µM): 103% | viability, T/C (second compound 0.0316 µM, first compound 0.00949 µM): 114% | viability, T/C (second compound 0.0316 µM, first compound 0.03 µM): 96% | viability, T/C (second compound 0.0316 µM, first compound 0.0949 µM): 93.9% | viability, T/C (second compound 0.0316 µM, first compound 0.3 µM): 77.8% | viability, T/C (second compound 0.1 µM, first compound 0.000949 µM): 133% | viability, T/C (second compound 0.1 µM, first compound 0.003 µM): 129% | viability, T/C (second compound 0.1 µM, first compound 0.00949 µM): 107% | viability, T/C (second compound 0.1 µM, first compound 0.03 µM): 105% | viability, T/C (second compound 0.1 µM, first compound 0.0949 µM): 94.2% | viability, T/C (second compound 0.1 µM, first compound 0.3 µM): 93.2% | viability, T/C (second compound 0.316 µM, first compound 0.000949 µM): 94% | viability, T/C (second compound 0.316 µM, first compound 0.003 µM): 87.2% | viability, T/C (second compound 0.316 µM, first compound 0.00949 µM): 93.7% | viability, T/C (second compound 0.316 µM, first compound 0.03 µM): 83.9% | viability, T/C (second compound 0.316 µM, first compound 0.0949 µM): 87.6% | viability, T/C (second compound 0.316 µM, first compound 0.3 µM): 79% | viability, T/C (second compound 1 µM, first compound 0.000949 µM): 29.3% | viability, T/C (second compound 1 µM, first compound 0.003 µM): 36.8% | viability, T/C (second compound 1 µM, first compound 0.00949 µM): 35.3% | viability, T/C (second compound 1 µM, first compound 0.03 µM): 29.3% | viability, T/C (second compound 1 µM, first compound 0.0949 µM): 30.8% | viability, T/C (second compound 1 µM, first compound 0.3 µM): 23.7% | viability, T/C (second compound 3.16 µM, first compound 0.000949 µM): 9.51% | viability, T/C (second compound 3.16 µM, first compound 0.003 µM): 9.88% | viability, T/C (second compound 3.16 µM, first compound 0.00949 µM): 10.5% | viability, T/C (second compound 3.16 µM, first compound 0.03 µM): 10.5% | viability, T/C (second compound 3.16 µM, first compound 0.0949 µM): 9.87% | viability, T/C (second compound 3.16 µM, first compound 0.3 µM): 9.45% | viability, T/C (second compound 10 µM, first compound 0.000949 µM): 2.62% | viability, T/C (second compound 10 µM, first compound 0.003 µM): 2.53% | viability, T/C (second compound 10 µM, first compound 0.00949 µM): 2.32% | viability, T/C (second compound 10 µM, first compound 0.03 µM): 1.8% | viability, T/C (second compound 10 µM, first compound 0.0949 µM): 1.99% | viability, T/C (second compound 10 µM, first compound 0.3 µM): 1.66%

CC1COCCN1c1cc(C2(S(C)(=N)=O)CC2)nc(-c2ccnc3[nH]ccc23)n1 (stereo not drawn)
viability, T/C (compound 0.0316 µM): 94.6% and 88.6% | viability, T/C (compound 0.1 µM): 92.4% and 94.7% | viability, T/C (compound 0.316 µM): 97.3% and 95.7% | viability, T/C (compound 1 µM): 94.2% and 94.3% | viability, T/C (compound 3.16 µM): 66.9% and 58.5% | viability, T/C (compound 10 µM): 54.5% and 47.8% | IC50 (curve of compound): > 10000 nM and 7890 nM

O=C(c1cc(Cc2n[nH]c(=O)c3ccccc23)ccc1F)N1CCN(C(=O)C2CC2)CC1
viability, T/C (compound 0.0316 µM): 99% and 103% | viability, T/C (compound 0.1 µM): 94% and 98.7% | viability, T/C (compound 0.316 µM): 102% and 87.7% | viability, T/C (compound 1 µM): 102% and 105% | viability, T/C (compound 3.16 µM): 80.1% and 94% | viability, T/C (compound 10 µM): 81.2% and 78.8% | IC50 (curve of compound): > 10000 nM

C#Cc1c(F)ccc2cc(O)cc(-c3ncc4c(N5CC6CCC(C5)N6)nc(OCC56CCCN5CC(F)C6)nc4c3F)c12 (stereo not drawn) + CN1CCN(c2cc(C(=O)Nc3cc4cc(-c5cnn(C)c5)ccc4cn3)ccn2)CC1
IC50 [1]: 1540 nM | IC50 [2]: 1780 nM | IC50 [3]: 1200 nM | IC50 [4]: < 31.6 nM | IC50 [5]: < 31.6 nM | IC50 [6]: < 31.6 nM | viability, T/C (second compound 0.0316 µM, first compound 0.0316 µM): 99.1% | viability, T/C (second compound 0.0316 µM, first compound 0.1 µM): 100% | viability, T/C (second compound 0.0316 µM, first compound 0.316 µM): 70.7% | viability, T/C (second compound 0.0316 µM, first compound 1 µM): 60.9% | viability, T/C (second compound 0.0316 µM, first compound 3.16 µM): 37.4% | viability, T/C (second compound 0.0316 µM, first compound 10 µM): 33.9% | viability, T/C (second compound 0.1 µM, first compound 0.0316 µM): 100% | viability, T/C (second compound 0.1 µM, first compound 0.1 µM): 113% | viability, T/C (second compound 0.1 µM, first compound 0.316 µM): 74.7% | viability, T/C (second compound 0.1 µM, first compound 1 µM): 60.5% | viability, T/C (second compound 0.1 µM, first compound 3.16 µM): 45.3% | viability, T/C (second compound 0.1 µM, first compound 10 µM): 33.4% | viability, T/C (second compound 0.316 µM, first compound 0.0316 µM): 105% | viability, T/C (second compound 0.316 µM, first compound 0.1 µM): 83.4% | viability, T/C (second compound 0.316 µM, first compound 0.316 µM): 68.4% | viability, T/C (second compound 0.316 µM, first compound 1 µM): 50.5% | viability, T/C (second compound 0.316 µM, first compound 3.16 µM): 41.4% | viability, T/C (second compound 0.316 µM, first compound 10 µM): 26.8% | viability, T/C (second compound 1 µM, first compound 0.0316 µM): 35.7% | viability, T/C (second compound 1 µM, first compound 0.1 µM): 35.1% | viability, T/C (second compound 1 µM, first compound 0.316 µM): 38% | viability, T/C (second compound 1 µM, first compound 1 µM): 27.2% | viability, T/C (second compound 1 µM, first compound 3.16 µM): 24.3% | viability, T/C (second compound 1 µM, first compound 10 µM): 19% | viability, T/C (second compound 3.16 µM, first compound 0.0316 µM): 11.2% | viability, T/C (second compound 3.16 µM, first compound 0.1 µM): 11.9% | viability, T/C (second compound 3.16 µM, first compound 0.316 µM): 7.84% | viability, T/C (second compound 3.16 µM, first compound 1 µM): 7.25% | viability, T/C (second compound 3.16 µM, first compound 3.16 µM): 5.39% | viability, T/C (second compound 3.16 µM, first compound 10 µM): 7.56% | viability, T/C (second compound 10 µM, first compound 0.0316 µM): 5.16% | viability, T/C (second compound 10 µM, first compound 0.1 µM): 2.81% | viability, T/C (second compound 10 µM, first compound 0.316 µM): 1.05% | viability, T/C (second compound 10 µM, first compound 1 µM): 1.26% | viability, T/C (second compound 10 µM, first compound 3.16 µM): 1.28% | viability, T/C (second compound 10 µM, first compound 10 µM): 4.84%
